13 compounds from patent publication US11447466B2, “Substituted indole compounds useful as inhibitors of TLR7/8/9” (BRISTOL-MYERS SQUIBB COMPANY, priority 2017, dated 2022) can be followed below.

By IC50 is commonly meant the concentration that gives 50% inhibition. A high value points to weaker potency.

Structures are written as SMILES.

What all share (format): cell-based
In one assay the target is T1, human TLR7 (Homo sapiens, UniProt Q9NYK1).
T1 construct: host or cells: HEK-Blue cells
T1 sequence (Q9NYK1 27-1049): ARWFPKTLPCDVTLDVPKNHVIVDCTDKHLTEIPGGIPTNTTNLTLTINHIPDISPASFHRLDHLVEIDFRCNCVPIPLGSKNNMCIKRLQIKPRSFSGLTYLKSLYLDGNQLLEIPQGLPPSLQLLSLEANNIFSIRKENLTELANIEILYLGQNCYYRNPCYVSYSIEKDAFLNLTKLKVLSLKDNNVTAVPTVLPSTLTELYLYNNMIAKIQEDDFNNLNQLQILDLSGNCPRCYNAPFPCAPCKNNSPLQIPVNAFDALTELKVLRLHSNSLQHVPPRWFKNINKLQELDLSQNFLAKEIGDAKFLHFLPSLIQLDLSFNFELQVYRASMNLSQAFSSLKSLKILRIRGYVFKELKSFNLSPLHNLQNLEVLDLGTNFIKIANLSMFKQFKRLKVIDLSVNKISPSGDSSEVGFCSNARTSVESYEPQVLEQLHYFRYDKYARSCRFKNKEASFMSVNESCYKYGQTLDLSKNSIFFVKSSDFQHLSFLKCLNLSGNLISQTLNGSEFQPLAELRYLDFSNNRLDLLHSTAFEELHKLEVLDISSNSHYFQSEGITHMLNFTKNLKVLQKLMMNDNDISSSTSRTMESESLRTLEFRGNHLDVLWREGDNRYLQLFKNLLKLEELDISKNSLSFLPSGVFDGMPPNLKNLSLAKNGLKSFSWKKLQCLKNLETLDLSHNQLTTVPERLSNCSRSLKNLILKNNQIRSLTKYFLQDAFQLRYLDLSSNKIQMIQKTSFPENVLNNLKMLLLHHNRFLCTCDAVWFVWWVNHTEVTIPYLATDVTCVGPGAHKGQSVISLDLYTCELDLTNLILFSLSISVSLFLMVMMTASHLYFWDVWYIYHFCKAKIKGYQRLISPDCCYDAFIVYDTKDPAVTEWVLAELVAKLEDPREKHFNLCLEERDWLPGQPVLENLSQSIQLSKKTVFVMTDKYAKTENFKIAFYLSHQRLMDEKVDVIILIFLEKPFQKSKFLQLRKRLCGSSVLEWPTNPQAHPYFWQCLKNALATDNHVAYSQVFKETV
Put plainly: TLR7 inhibition reporter assay (HEK-Blue SEAP reporter, gardiquimod stimulation). As to conditions: HEK-Blue cells overexpressing human TLR7, SEAP reporter, gardiquimod 7.5 μM, 22 hour incubation. In outline: (§1)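 Compound treatment: 30 min, RT, 0.05 nM–50 μM final. Agonist: TLR7 gardiquimod 7.5 μM; TLR8 R848 15.9 μM; TLR9 ODN2006 5 nM. Incubation 22 h, 37 °C, 5% CO2. Readout SEAP, HEK-Blue Detection.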
For orientation: In a reporter assay the amount or activity of a reporter protein is the signal.

A further assay deals with T2, human TLR8 (Homo sapiens, UniProt Q9NR97).
T2 construct: host or cells: HEK-Blue cells
T2 sequence (Q9NR97 27-1041): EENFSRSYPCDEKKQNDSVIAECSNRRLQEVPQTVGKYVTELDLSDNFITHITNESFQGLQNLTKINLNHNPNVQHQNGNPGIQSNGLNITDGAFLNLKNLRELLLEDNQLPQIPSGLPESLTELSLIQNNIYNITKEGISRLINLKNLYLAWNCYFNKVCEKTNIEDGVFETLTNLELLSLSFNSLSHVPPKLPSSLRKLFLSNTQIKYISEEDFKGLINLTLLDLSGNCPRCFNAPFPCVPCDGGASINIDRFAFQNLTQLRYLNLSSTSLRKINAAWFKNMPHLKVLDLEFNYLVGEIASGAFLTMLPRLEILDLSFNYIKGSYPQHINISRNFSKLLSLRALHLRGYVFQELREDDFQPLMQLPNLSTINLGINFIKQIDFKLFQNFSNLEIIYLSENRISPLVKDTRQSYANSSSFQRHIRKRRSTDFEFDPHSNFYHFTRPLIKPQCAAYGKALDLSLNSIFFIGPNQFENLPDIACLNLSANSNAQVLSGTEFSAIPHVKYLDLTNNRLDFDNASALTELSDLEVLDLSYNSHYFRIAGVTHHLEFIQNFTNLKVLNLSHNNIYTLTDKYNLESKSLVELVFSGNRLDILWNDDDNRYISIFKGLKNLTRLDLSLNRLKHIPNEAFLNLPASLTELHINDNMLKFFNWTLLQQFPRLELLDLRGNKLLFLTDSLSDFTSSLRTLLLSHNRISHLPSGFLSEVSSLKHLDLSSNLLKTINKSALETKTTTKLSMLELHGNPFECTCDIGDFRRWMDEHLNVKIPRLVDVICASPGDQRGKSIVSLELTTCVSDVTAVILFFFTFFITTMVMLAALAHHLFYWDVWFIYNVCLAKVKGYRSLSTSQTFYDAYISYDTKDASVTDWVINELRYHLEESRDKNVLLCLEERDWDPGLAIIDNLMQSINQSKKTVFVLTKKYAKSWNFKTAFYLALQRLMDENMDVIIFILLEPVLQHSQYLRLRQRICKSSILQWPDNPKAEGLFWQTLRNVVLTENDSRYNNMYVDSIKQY
Briefly: TLR8 inhibition reporter assay (HEK-Blue SEAP reporter, R848 stimulation). As to conditions: HEK-Blue cells overexpressing human TLR8, SEAP reporter, R848 15.9 μM, 22 hour incubation. In outline:
as §1

Another assay deals with T3, human TLR9 (Homo sapiens, UniProt Q9NR96).
T3 construct: host or cells: HEK-Blue cells
T3 sequence (Q9NR96 26-1032): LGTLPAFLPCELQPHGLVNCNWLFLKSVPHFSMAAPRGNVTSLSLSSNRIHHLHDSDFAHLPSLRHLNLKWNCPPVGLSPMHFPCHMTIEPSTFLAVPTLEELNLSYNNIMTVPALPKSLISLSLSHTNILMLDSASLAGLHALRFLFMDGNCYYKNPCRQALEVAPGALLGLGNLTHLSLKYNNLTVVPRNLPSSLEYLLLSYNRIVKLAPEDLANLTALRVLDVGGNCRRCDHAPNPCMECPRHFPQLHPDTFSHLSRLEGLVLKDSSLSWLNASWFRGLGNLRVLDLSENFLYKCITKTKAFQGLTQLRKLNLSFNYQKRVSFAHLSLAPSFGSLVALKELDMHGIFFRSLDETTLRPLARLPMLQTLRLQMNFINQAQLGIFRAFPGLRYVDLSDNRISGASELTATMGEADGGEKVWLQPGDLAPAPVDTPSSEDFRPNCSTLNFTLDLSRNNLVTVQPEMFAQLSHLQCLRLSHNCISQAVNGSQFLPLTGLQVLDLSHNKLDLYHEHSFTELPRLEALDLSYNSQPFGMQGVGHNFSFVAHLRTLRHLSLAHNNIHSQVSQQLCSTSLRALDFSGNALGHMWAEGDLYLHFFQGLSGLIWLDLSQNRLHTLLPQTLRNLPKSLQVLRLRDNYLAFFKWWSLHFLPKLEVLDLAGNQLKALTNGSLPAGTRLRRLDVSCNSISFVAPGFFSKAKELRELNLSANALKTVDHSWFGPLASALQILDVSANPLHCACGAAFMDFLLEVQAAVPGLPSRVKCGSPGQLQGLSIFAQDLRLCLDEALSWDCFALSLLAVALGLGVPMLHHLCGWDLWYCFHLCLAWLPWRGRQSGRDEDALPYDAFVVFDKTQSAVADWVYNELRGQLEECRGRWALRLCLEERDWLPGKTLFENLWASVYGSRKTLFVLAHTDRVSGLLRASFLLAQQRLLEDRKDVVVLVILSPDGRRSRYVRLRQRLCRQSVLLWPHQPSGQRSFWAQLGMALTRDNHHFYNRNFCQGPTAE
Put plainly: TLR9 inhibition reporter assay (HEK-Blue SEAP reporter, ODN2006 stimulation). As to conditions: HEK-Blue cells overexpressing human TLR9, SEAP reporter, ODN2006 5 nM, 22 hour incubation. In outline: as §1

Take `Cc1c(-c2[nH]c3ccc(C4CCN(CC5CCOC5)CC4)cc3c2C(C)C)cn(C)c(=O)c1Cl` (stereo not drawn) [Example 254, 3-chloro-5-(3-isopropyl-5-(1-((tetrahydrofuran-3-yl)methyl)piperidin-4-yl)-1H-indol-2-yl)-1,4-dimethylpyridin-2(1H)-one]: the IC50 against human TLR7 is 5.5 nM; on human TLR8, 2.1 nM; on human TLR9, 2670 nM.
Consider `Cc1c(-c2[nH]c3ccc(C4CCN(CC(C)C)CC4)cc3c2C(C)C)cn(C)c(=O)c1Cl` [Example 106, 3-chloro-5-(5-(1-isobutylpiperidin-4-yl)-3-isopropyl-1H-indol-2-yl)-1,4-dimethylpyridin-2(1H)-one], for which the IC50 on human TLR7 is 6.2 nM; at human TLR8 it was 5.5 nM; at human TLR9 it was 1250 nM.
`Cc1cc(-c2[nH]c3ccc(C4CCN(C(C)(C)C(N)=O)CC4)cc3c2C(C)C)cn(C)c1=O` [Example 151, 2-(4-(2-(1,5-dimethyl-6-oxo-1,6-dihydropyridin-3-yl)-3-isopropyl-1H-indol-5-yl)piperidin-1-yl)-2-methylpropanamide]: the IC50 stood at 1.2 nM against human TLR7, 13.7 nM against human TLR8 and 11000 nM against human TLR9.
For `CC(C)c1c(-c2cc(-c3cccnc3)c(=O)n(C)c2)[nH]c2ccc(C3CCNCC3)cc12` [Example 50, 5-(3-isopropyl-5-(piperidin-4-yl)-1H-indol-2-yl)-1-methyl-[3,3′-bipyridin]-2(1H)-one], the IC50 against human TLR7 was 6.8 nM; against human TLR8 it was 7.7 nM; on human TLR9, 411 nM.
For the compound `CCn1cc(-c2[nH]c3ccc(C4CCNCC4)cc3c2C(C)C)cc(C)c1=O` [Example 15, 1-ethyl-5-(3-isopropyl-5-(piperidin-4-yl)-1H-indol-2-yl)-3-methylpyridin-2(1H)-one], the figures for the IC50 against human TLR7, against human TLR8 and against human TLR9 were 1.9 nM, 3.3 nM and 179 nM, respectively.
Regarding `CC(=O)NC1CCC(N2CCC(c3ccc4[nH]c(-c5cc(C)c(=O)n(C)c5)c(C(C)C)c4c3)CC2)CC1` (stereo not drawn) [Example 229, N-(4-(4-(2-(1,5-dimethyl-6-oxo-1,6-dihydropyridin-3-yl)-3-isopropyl-1H-indol-5-yl)piperidin-1-yl)cyclohexyl)acetamide], the IC50 was 5.7 nM against human TLR7, 4.2 nM against human TLR8 and at least 50000 nM on human TLR9.
For `Cc1cc(-c2[nH]c3ccc(C4CCN(CC5CC5(F)F)CC4)cc3c2C(C)C)cn(C)c1=O` (stereo not drawn) [Example 83, 5-(5-(1-((2,2-difluorocyclopropyl)methyl)piperidin-4-yl)-3-isopropyl-1H-indol-2-yl)-1,3-dimethylpyridin-2(1H)-one], the results for the half-inhibitory concentration (IC50) on human TLR7, at human TLR8 and on human TLR9 were 3.9 nM, 1.2 nM and 7140 nM, respectively.
Turning to `CCn1cc(-c2[nH]c3ccc(C4CCN(C5CCOCC5)CC4)cc3c2C(C)C)c(C)c(C)c1=O` [Example 208, 1-ethyl-5-(3-isopropyl-5-(1-(tetrahydro-2H-pyran-4-yl)piperidin-4-yl)-1H-indol-2-yl)-3,4-dimethylpyridin-2(1H)-one], the IC50 is 31.1 nM against human TLR7, 7 nM at human TLR8 and 3110 nM against human TLR9.
On to `Cc1cc(-c2[nH]c3ccc(C4CCN(CC(=O)N5CCC(=O)N5)CC4)cc3c2C(C)C)cn(C)c1=O` [Example 121, 5-(3-isopropyl-5-(1-(2-oxo-2-(3-oxopyrazolidin-1-yl)ethyl)piperidin-4-yl)-1H-indol-2-yl)-1,3-dimethylpyridin-2(1H)-one], for which the IC50 was 40.7 nM against human TLR7, 102 nM against human TLR8 and at least 50000 nM on human TLR9.
`Cc1cc(-c2[nH]c3ccc(C4CCN(C(=O)CN(C)C)CC4)cc3c2C(C)C)c(C)n(C)c1=O` [Example 279, 5-(5-(1-(dimethylglycyl)piperidin-4-yl)-3-isopropyl-1H-indol-2-yl)-1,3,6-trimethylpyridin-2(1H)-one]: the IC50 against human TLR7 worked out at 23.1 nM; on human TLR8, 5.9 nM; at human TLR9, 7060 nM.
Consider `Cc1cc(-c2[nH]c3ccc(C4CCN(C)CC4)cc3c2C(C)C)cn(CCO)c1=O` [Example 264, 1-(2-hydroxyethyl)-5-(3-isopropyl-5-(1-methylpiperidin-4-yl)-1H-indol-2-yl)-3-methylpyridin-2(1H)-one], for which the IC50 against human TLR7 came out at 13.5 nM; at human TLR8, 927 nM; on human TLR9 it was 6090 nM.
The like results for `CC(C)c1c(-c2cc(/C=C/C3CC3)c(=O)n(C)c2)[nH]c2ccc(C3CCNCC3)cc12` [Example 52, (E)-3-(2-cyclopropylvinyl)-5-(3-isopropyl-5-(piperidin-4-yl)-1H-indol-2-yl)-1-methylpyridin-2(1H)-one] were, in that order, 185 nM, 142 nM and 1520 nM.
In the case of `C=C(C)c1cc(-c2[nH]c3ccc(C4CCNCC4)cc3c2C(C)C)cn(C)c1=O` [Example 51, 5-(3-isopropyl-5-(piperidin-4-yl)-1H-indol-2-yl)-1-methyl-3-(prop-1-en-2-yl)pyridin-2(1H)-one], the IC50 at human TLR7 is 10.9 nM; against human TLR8, 30.6 nM; at human TLR9 it was 2580 nM.
